Measurements reported in the Deep4Chem optical property database.
Where “and” joins values, the source holds several entries; their conditions need not be identical. Identical values can stand only once.

Test: photoluminescence quantum yield (fraction); solvent given as SMILES

## F[B-]1(F)n2c(c3cccc4cccc2c43)=Nc2ccc3ccccc3[n+]21
In C1CCOC1
  photoluminescence quantum yield: 0.98
In CC#N
  photoluminescence quantum yield: 0.99
In CCCCCC
  photoluminescence quantum yield: 0.63
In Cc1ccccc1
  photoluminescence quantum yield: 0.99
In ClCCl
  photoluminescence quantum yield: 0.99

## Cc1cc(O)c(-c2[nH]c(=O)n3c2-c2ccccc2C3=O)cc1Cl
In CC#N
  photoluminescence quantum yield: 0.56
In CO
  photoluminescence quantum yield: 0.3
In ClCCl
  photoluminescence quantum yield: 0.61

## CCCCCCN1C(=O)c2cccc3c(-c4ccc(-c5cc(-c6cccc7ccccc67)nn5-c5ccccc5)s4)ccc(c23)C1=O
In ClCCl
  photoluminescence quantum yield: 0.16

## Cc1ccc(-c2ccc(-c3ccc(-c4ccc(-c5ccc(C)cc5)cc4)c(/C(=C(/c4ccccc4)c4cc(-c5ccc(-c6ccc(C)cc6)cc5)ccc4-c4ccc(-c5ccc(C)cc5)cc4)c4ccccc4)c3)cc2)cc1
In C1CCOC1
  photoluminescence quantum yield: 0.3

## Clc1nc(Nc2ccccc2)nc(Nc2ccc3cc4ccccc4cc3c2)n1
In C1COCCO1
  photoluminescence quantum yield: 0.42
In CC#N
  photoluminescence quantum yield: 0.18
In CCCCOCCCC
  photoluminescence quantum yield: 0.35
In CCOC(C)=O
  photoluminescence quantum yield: 0.23

## C(#Cc1nc(C#Cc2ccccc2)c(C#Cc2ccccc2)c(C#Cc2ccccc2)c1C#Cc1ccccc1)c1ccccc1
In ClCCl
  photoluminescence quantum yield: 0.55

## CC(C)(C)c1ccc(-c2cc3c4c(c2)CCc2cc(-c5ccc(C(C)(C)C)cc5)cc(c2-4)CC3)cc1
In C1CCCCC1
  photoluminescence quantum yield: 0.61
In C1CCOC1
  photoluminescence quantum yield: 0.68
In CC#N
  photoluminescence quantum yield: 0.55
In CCCCCC
  photoluminescence quantum yield: 0.52
In CCO
  photoluminescence quantum yield: 0.48
In CN(C)C=O
  photoluminescence quantum yield: 0.66
In CO
  photoluminescence quantum yield: 0.39
In Cc1ccccc1
  photoluminescence quantum yield: 1
In ClC(Cl)Cl
  photoluminescence quantum yield: 0.53
In ClCCl
  photoluminescence quantum yield: 1

## CCCC1=Cc2nc1ccc1[nH]c(cc1CCC)c1nc(ccc3[nH]c2cc3CCC)C(CCC)=C1
In Cc1ccccc1
  photoluminescence quantum yield: 0.38

## CC[B-]1(CC)c2cccc3cc4ccccc4c(c23)-c2cccc(C)[n+]21
In ClCCl
  photoluminescence quantum yield: 0.202

## CC1=[N+]2C(=C(c3c4ccccc4cc4ccccc34)c3ccc(C)n3[B-]2(F)F)C=C1
In C1CCOC1
  photoluminescence quantum yield: 0.002
In CC#N
  photoluminescence quantum yield: 0.002
In CCO
  photoluminescence quantum yield: 0.005
In CN(C)C=O
  photoluminescence quantum yield: 0.003
In CO
  photoluminescence quantum yield: 0.001
In CS(C)=O
  photoluminescence quantum yield: 0.002
In Cc1ccccc1
  photoluminescence quantum yield: 0.29
In ClC(Cl)Cl
  photoluminescence quantum yield: 0.01 and 0.004

## COc1ccc(C2=C(c3ccc(OC)cc3)C(C)(C)c3ccccc32)cc1
In C1CCCCC1
  photoluminescence quantum yield: 0.09

## CCCCC(CC)COc1cc(OCC(CC)CCCC)c2c#cc3ccc4sc5ccc(c#cc6cc(c#cc7ccc8sc9ccc(c#cc1c2)cc9c8c7)c(C(CCCC)OCCC)cc6C(CCCC)OCCC)cc5c4c3 (configuration not stated)
In ClCCl
  photoluminescence quantum yield: 0.22

## CC1(C)C(/C=C/C2=C(Cl)C(=C/C=C3/N(Cc4ccc(F)cc4)c4ccccc4C3(C)C)/CCC2)=[N+](Cc2ccc(F)cc2)c2ccccc21
In CCO
  photoluminescence quantum yield: 0.148

## CN(C)c1ccc(/C=C/C=C/c2ccc(C#N)cc2)cc1
In C1CCOC1
  photoluminescence quantum yield: 0.098
In CC#N
  photoluminescence quantum yield: 0.223
In CCCC#N
  photoluminescence quantum yield: 0.125
In CCCCCC
  photoluminescence quantum yield: 0.059
In CCCCOCCCC
  photoluminescence quantum yield: 0.068
In CCO
  photoluminescence quantum yield: 0.187
In CCOCC
  photoluminescence quantum yield: 0.085

## O=c1oc2ccccc2c2c1c(=O)oc1ccc3ccc(O)cc3c12
In CS(C)=O
  photoluminescence quantum yield: 0.02
In ClCCl
  photoluminescence quantum yield: 0.22

## COc1ccc(N(c2ccc(C=C(c3ccccc3)c3ccccc3)cc2)c2ccc(C=C(c3ccccc3)c3ccccc3)cc2)cc1
In Cc1ccccc1
  photoluminescence quantum yield: 0.06

## CC(=O)c1ccc(-c2nc3ccc(N(C)C)c(Cl)c3s2)cc1
In C1CCCCC1
  photoluminescence quantum yield: 0.5
In CC#N
  photoluminescence quantum yield: 0.7
In CO
  photoluminescence quantum yield: 0.054
In ClC(Cl)Cl
  photoluminescence quantum yield: 0.9

## Clc1ccc(/C=C(\c2ccccc2)c2nc3ccccc3s2)cc1
In C1CCCCC1
  photoluminescence quantum yield: 0.001
In CO
  photoluminescence quantum yield: 0.001

## Cc1cc(C)c(B(c2cc(-c3ccccc3)sc2-c2sc(-c3ccccc3)cc2P(=O)(c2ccccc2)c2ccccc2)c2c(C)cc(C)cc2C)c(C)c1
In CO
  photoluminescence quantum yield: 0.75

## CCOC(=O)c1sc(SC)c2c(=O)[nH]nnc12
In C1CCOC1
  photoluminescence quantum yield: 0.0075
In CC#N
  photoluminescence quantum yield: 0.018
In CCO
  photoluminescence quantum yield: 0.023
In CN(C)C=O
  photoluminescence quantum yield: 0.0037
In CO
  photoluminescence quantum yield: 0.029
In CS(C)=O
  photoluminescence quantum yield: 0.0054

## C[N+]1=C(/C=C/C=C2/N(CCC[N+](C)(C)C)c3ccccc3C2(C)C)C(C)(C)c2ccccc21
In CS(C)=O
  photoluminescence quantum yield: 0.08
